Source: patent US6448283B1, “Methods for preventing/treating damage to sensory hair cells and cochlear neurons” (Cephalon, Inc., priority 1998, dated 2002)
One block for each molecule: values may come before it.

How the values were obtained:
[1] = test system: outer hair cells in organotypic cultures of the neonatal organ of Corti; test: Hair cell counts in neomycin-exposed cochlear explant cultures; type: cell-based, rat
Description: (§1) The basal half of cochleas containing the basal and middle turns were dissected from postnatal day 2 Wistar rats. The cultures were maintained on Nuclepore filters (pore size […]; Pleasanton, Calif.) placed on a metal grid in F12 medium (Life Technologies, Gaithersburg, Md.) containing 15% fetal bovine serum (Life Technologies). After a 2-hour-long stabilization period, explants were exposed to 100 mM neomycin sulfate (Sigma, St Louis, Mo.) for 48 hr.
(§2) Explants were fixed with 4% paraformaldehyde/0.5% glutaraldehyde in phosphate buffered saline (PBS), pH 7.4, for 30 min and dissected for surface preparations. They were stained with a 1:100 dilution of rhodamine-phalloidin in PBS containing 0.25% Triton X-l 00 overnight at 4° C. and mounted in Vectashield (Vector). Outer hair cell (OHC) numbers were quantified with a Zeiss Axiovert 100/135 epifluorescent microscope (Germany) connected to a Bio-Rad MRC-1024 confocal laser scanning system (Richmond, Calif.). Hair cells were characterized as missing if no stereocilia and cuticular plate were observed. Numbers of OHCs were evaluated using a 40×objective lens and an ocular grid. Nine to 1 fields filled by 30 OHCs in each of the 3 rows (when all of them were present) were studied from each explant. Basal and middle coils were analyzed separately. Three separate experiments, each including 4 explants of both conditions (neomycin and neomycin plus Formula II) were analyzed.
as §1, with “μM” for “mM”, “hr. The compounds of Formula I and the compound of Formula I were added at 500 nM at the time of initiation of the cultures and every 12 hr thereafter. Neomycin plus vehicle was used as a control.” for “hr.”
as §2, with “X-100” for “X-l 00”, “40x objective” for “40×objective”, “Several” for “Nine to 1”, “separately.” for “separately. Three separate experiments, each including 4 explants of both conditions (neomycin and neomycin plus Formula II) were analyzed.”

[2] = test system: cochlear ganglion neurons; settings: Ylikoski et al., 1998; cited from earlier work
[3] = 100 mM neomycin (so in the source) alone for 48 hr, n=12

Molecule: O=C1NC(=O)c2c1c1c(c3[nH]c4ccccc4c23)Cc2ccccc2-1 [Example 8, 6H,12H,13H-Indeno[2,3-a]pyrrolo[3,4-c]carbazole-5,7(5H, 7H)-dione]
viability at 0.5 µM ([1]; Rattus norvegicus, 48 h, compound 500 nM plus 100 μM neomycin 48 hr, NEO = neomycin plus vehicle, each line a separate count, read-out: % preserved): 21%

Molecule: NGF: nerve growth factor, negative control in cochlear neuron cultures
survival of dissociated cochlear neurons of the perinatal rat [2]: does not have any effect or its effect is very weak

OHCs in the basal turn lost [1, 3]: Approximately 90%
OHCs in the middle turn lost [1, 3]: ~25%
Molecule: neomycin sulfate [reference compound]

B1: NT-3: neurotrophic factor, positive comparator in cochlear neuron cultures (protein, UniProt P20783 139-257, looked up)
Neurotrophin-3: YAEHKSHRGEYSVCDSESLWVTDKSSAIDIRGHQVTVLGEIKTGNSPVKQYFYETRCKEARPVKNGCRGIDDKHWNSQCKTSQTYVRALTSENNKLVGWRWIRIDTSCVCALSRKIGRT
survival of dissociated cochlear neurons of the perinatal rat [2]: most potent neurotrophic factor promoting survival
